Source: patent US20130344140A1, “NOVEL PHARMACEUTICAL COMBINATIONS AND METHODS FOR TREATING CANCER” (Agency for Science, Technology and Research, priority 2011, published 2013)

Assays:
[1] = tested on: Cdk/cyclin kinase activities (Cdk2, cdc2, cyclins A2 and B1) in A549 cells; experiment: Cdk/cyclin kinase activities after incubation with VX-680 (immunoprecipitation, histone H1 kinase assay); assay type: cell-based; conditions: A549, VX-680 time course
Description: (b) is a series of western blots showing the kinetics of Kinetics of Cdk/cyclin kinase activities after incubation with VX-680. Cdk/cyclin kinase activities were assayed in vitro (refer to Materials and Methods in Examples). Cdk2, cyclins A and B1 were immunoprecipitated from cell lysates using specific antibodies followed by in vitro kinase assays using histone H1 as a substrate. Suc1 is used to capture Cdk1 and Cdk2 complexes by protein pull down as described in Materials and Methods. […]
The immunoprecipitated beads were resuspended in 5 μl of EB buffer, 10 mM DTT and 20 to […]. […] After electrophoresis on 12.5% polyacrylamide gels, phosphorylation was analyzed by autoradiography and quantified by phosphorimage analysis.

A549 cells [2] = experiment: Colony survival assay, A549; assay type: cell-based; conditions: A549, VX-680 treatment alone, 48 h
Description: Colonies were counted 2 weeks after recovery in drug-free media. Cells were fixed with glutaraldehyde and stained with crystal violet. Plates are scanned and colonies were counted with an automated image analyzer. Three independent experiments were performed for each cell line.
Each data point represents the mean±S.D.
A total of 1000 cells were plated on each 10 cm plate and allowed to adhere overnight. […] After 48 h, cells were washed and recovered in fresh media for 12 days. Cells were then fixed in 6% glutaraldehyde (Sigma) and stained with crystal violet. Colonies were counted using GelCount™ (Oxford Optronix, Oxford, England). Each condition was carried out in triplicate.

human keratinocytes = conditions: HEK cells treated with VX-680
Description: Primary human keratinocytes were purchased from Invitrogen and cultured in defined keratinocyte serum-free media (Invitrogen). All cell lines were cultured in a CO2 incubator (5% CO2 and 21% O2) at 37° C.
For analysis of cell cycle distribution, cells were harvested and fixed in 70% ethanol/PBS solution. Cells were stained in propidium-iodide containing solution (25 μg/ml propidium iodide supplemented with 1 mg/ml RNase A, in PBS (pH 7.8); Sigma Chemical, St Louis, Mo., USA) for 15 min at room temperature.

A375 and HCT116 p53+/+ = experiment: Annexin V apoptosis assay, p53-positive cell lines; assay type: cell-based; conditions: various concentrations of VX-680
Description: Cells were then harvested and stained for annexin V to detect apoptotic cells.
For analysis of apoptosis, cells were harvested without fixation. Apoptosis was evaluated using the annexin V (fluorescein isothiocyanate (FITC))-propidium iodide binding assay (Roche, Indianapolis, Ind., USA). The extent of apoptosis was quantified as a percentage of annexin V-positive cells over the total cell population. Flow cytometric analysis was performed on a BD LSR II System (BD Biosciences, Stockholm, Sweden). Data were analyzed using FlowJo software and ModFit LT (Verity Software House, Topsham, Me., USA).

HCT116 p53−/− cells = experiment: Cell cycle analysis of HCT116 p53−/− cells (nutlin-3, VX-680); assay type: cell-based; conditions: 200 nM VX-680, later time points (40 and 48 h), compared with p53+/+
Description: (a) is a comparison of the DNA profiles of P53+/+ and p53−/− cells after treatment with VX-680. HCT116 p53+/+ and p53−/− cells were incubated with 200 nM VX-680 and cells were harvested at the indicated time points for analysis of cell cycle distribution.
(b) is a comparison of the DNA profiles of p53+/+ and p53−/− cells with pre-treatment of Nutlin before incubation with VX-680.

[3] = tested on: cyclins A2 and B1 mRNAs in wild-type HCT116 cells; experiment: qRT-PCR of transcript levels in HCT116 cells treated with VX-680; assay type: cell-based; conditions: VX-680-treated wild-type HCT116 (not in p53−/− or p21−/− cells)
Description: It is noteworthy that cyclins A2 and B1 levels remained high in p53−/− and p21−/− cells even after cells were incubated with VX-680 for 48 h, in contrast to that observed in the wild-type cells.
(§1) Total RNA was isolated using the RNeasy kit (Qiagen, Valencia, Calif., USA). The RNA was quantified using spectrophotometric analysis and used for quantitative real-time PCR. The primers used for each target analyzed are available on request. The RNA Master Power SYBR Green Mix (Roche) was used for quantification of mRNA levels.

[4] = tested on: cyclins A2 and B1 in A549 cells; experiment: Western blot of cell cycle-related proteins after VX-680 treatment; assay type: cell-based; conditions: A549, VX-680 time course
Description: (c) is a series of western blots showing the comparison of expression levels of cell cycle-related proteins (Rb, cdc2, Cdk2, cyclin A2, cyclin E1 and cyclin B1) and p53-dependent gene products (MDM2 and p21) at the indicated time points after VX-680 treatment. Downregulation of mitotic cyclins A and B and upregulation of p53-dependent genes p21 and MDM2 correlate with the activation of p53.
(§2) For western blotting, cell extracts were prepared using NP-40 lysis buffer (50 mM Tris-HCl (pH 8.0), 150 mM NaCl, 1% NP-40, 5 mM EDTA supplemented with protease and phosphatase inhibitor cocktails (Sigma).

A549 cells [5] = experiment: Micronuclei formation and γH2AX staining (immunofluorescence microscopy) in A549 cells; assay type: cell-based
Description: Cells were fixed and stained for γH2AX (green) as described in Materials and Methods in the Examples. Nuclei were counterstained with DAPI blue. Visualization of nuclei and γH2AX positive foci was done by fluorescence microscopy.
Indirect immunofluorescence was carried out as described previously.^14 g-H2AX (Novus Biologicals, Littleton, Colo., USA, NB 100-383) and anti-rabbit Alexa 488-coupled secondary antibody (Molecular Probes, Carlsbad, Calif., USA) were used. Nuclei were counterstained with Hoechst 33342 (Molecular Probes). Immunofluorescence was visualized using Axiolmager Z1 (Zeiss, Gottingen, Germany).

p53, p21, MDM2 and PUMA = experiment: Accumulation of p53 and p53-dependent gene products in response to VX-680 (western blot, transcript levels); assay type: cell-based; conditions: cells treated with VX-680 (FIG. 8A)
Description: (A) Western blots show the accumulation of p53, p21, MDM2 and PUMA proteins. Graphs below represent the quantification of the corresponding transcript levels of the proteins.
as §2, §1

## Cc1cc(Nc2cc(N3CCN(C)CC3)nc(Sc3ccc(NC(=O)C4CC4)cc3)n2)[nH]n1 [VX-680, cyclopropane carboxylic acid of {4-[4-(4-methyl-piperazin-1-yl)-6-(5-methyl-2H-pyrazol-3-ylamino)-pyrimidin-2-ylsulphanyl]-phenyl}-amide]
[1]
  Cdk2 and cdc2 kinase activities: markedly reduced to undetectable levels
  cyclins A2- and B1-associated kinase activities: rapid reduction
A549 cells [2]
  number of colonies: drastically reduced
Human keratinocytes
  tetraploidy formation: significant tetraploid G2/M population
A375 and HCT116 p53+/+
  apoptosis (annexin V): underwent apoptosis
HCT116 p53−/− cells
  endoreduplication: Increased endoreduplication
[3]
  cyclins A2 and B1 mRNAs: greatly reduced
[4]
  protein levels of cyclins A2 and B1: timedependent decrease
A549 cells [5]; A549, VX-680 48 h
  cells containing at least 1 micronucleus per nucleus: More than 70%
A549 cells [5]; A549, VX-680-treated
  γH2AX staining in the micronuclei: increased
p53, p21, MDM2 and PUMA
  p53 activation: p53 was activated
  p53 target genes p21, PUMA and MDM2: all upregulated
